Reference: ChEMBL document CHEMBL5715260, “Selectivity Literature for EUbOPEN Chemogenomic Library” (2024)
pIC50: −log10 of the molar value. One block for each compound: values may come before it. Where a SMILES comes first, the peptide text is derived from it. [ ]: non-standard residue; d: D form. The star is where a group is joined. Benzoyl(4-tBu) = CC(C)(C)c1ccc(C(=O)*)cc1; Lys(Et2) = CCN(CC)CCCC[C@H](N)C(=O)O

What was measured:
[1] = biological target: Bromodomain and PHD finger-containing protein 3 (Homo sapiens) (UniProt Q9ULD4); details: at 1 µM
[2] = biological target: Bromodomain-containing protein 1 (Homo sapiens) (UniProt O95696); details: at 1 µM
[3] = biological target: cAMP and cAMP-inhibited cGMP 3',5'-cyclic phosphodiesterase 10A (Homo sapiens) (UniProt Q9Y233); test: Selectivity interaction (Enzymatic assay) EUB0002694a PDE10A; set-up: recommended concentration 1 uM; details: at 10 µM
[4] = biological target: cGMP-specific 3',5'-cyclic phosphodiesterase (Homo sapiens) (UniProt O76074); test: Selectivity interaction (Enzymatic assay) EUB0002694a PDE5A; set-up: recommended concentration 1 uM; details: at 10 µM
[5] = biological target: T1, Bromodomain-containing protein 9 (Homo sapiens, UniProt Q9H8M2); test: (§1) Selectivity interaction (Bromodomain panel) EUB0000233b BRD9; set-up: recommended concentration 1 uM
T1 sequence (Q9H8M2 whole entry): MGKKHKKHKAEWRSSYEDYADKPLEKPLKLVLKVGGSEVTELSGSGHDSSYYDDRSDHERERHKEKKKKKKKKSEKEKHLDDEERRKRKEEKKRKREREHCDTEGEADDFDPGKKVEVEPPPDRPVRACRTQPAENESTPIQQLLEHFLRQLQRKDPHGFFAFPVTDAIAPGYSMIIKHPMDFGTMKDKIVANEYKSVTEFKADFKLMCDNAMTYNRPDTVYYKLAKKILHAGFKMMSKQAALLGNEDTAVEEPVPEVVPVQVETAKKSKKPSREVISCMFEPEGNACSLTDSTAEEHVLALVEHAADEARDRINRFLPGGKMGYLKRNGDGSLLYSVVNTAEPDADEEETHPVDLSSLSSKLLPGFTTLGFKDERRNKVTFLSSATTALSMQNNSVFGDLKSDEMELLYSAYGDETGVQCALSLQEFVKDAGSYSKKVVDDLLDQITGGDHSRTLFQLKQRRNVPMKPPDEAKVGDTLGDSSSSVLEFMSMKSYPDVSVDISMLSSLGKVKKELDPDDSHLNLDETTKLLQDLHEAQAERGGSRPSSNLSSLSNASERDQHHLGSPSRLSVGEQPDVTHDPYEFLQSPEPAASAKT

[6] = biological target: T1, Bromodomain-containing protein 9; test: as §1; set-up: recommended concentration 1 uM; remark: listed apart in the source
[7] = biological target: T1, Bromodomain-containing protein 9; test: as §1; set-up: recommended concentration 1 uM; remark: listed apart in the source
Mu-type opioid receptor [8] = biological target: T2, Mu-type opioid receptor (Homo sapiens, UniProt P35372); test: Selectivity interaction (NIMH PDSP panel) EUB0002346a OPRM1; set-up: recommended concentration 1 uM; details: at 10 µM
[9] = biological target: Vasopressin V2 receptor (Homo sapiens) (UniProt P30518); test: Selectivity interaction (NIMH PDSP panel) EUB0002346a AVPR2; set-up: recommended concentration 1 uM; details: at 10 µM
[10] = biological target: Delta-type opioid receptor (Homo sapiens, UniProt P41143); test: Selectivity interaction (NIMH PDSP panel) EUB0002346a OPRD1; set-up: recommended concentration 1 uM; details: at 10 µM
[11] = biological target: Substance-K receptor (Homo sapiens) (UniProt P21452); test: Selectivity interaction (NIMH PDSP panel) EUB0002346a TACR2; set-up: recommended concentration 1 uM; details: at 10 µM
Mu-type opioid receptor [12] = biological target: T2, Mu-type opioid receptor; test: Selectivity interaction (CEREP panel) EUB0002346a OPRM1; set-up: recommended concentration 1 uM; details: at 10 µM
[13] = biological target: T3, Kappa-type opioid receptor (Homo sapiens, UniProt P41145); test: Selectivity interaction (NIMH PDSP panel) EUB0002346a OPRK1; set-up: recommended concentration 1 uM; details: at 10 µM
[14] = biological target: Vasopressin V1a receptor (Homo sapiens) (UniProt P37288); test: Selectivity interaction (NIMH PDSP panel) EUB0002346a AVPR1A; set-up: recommended concentration 1 uM; details: at 10 µM
[15] = biological target: T3, Kappa-type opioid receptor; test: Selectivity interaction (CEREP panel) EUB0002346a OPRK1; set-up: recommended concentration 1 uM; details: at 10 µM
[16] = biological target: Vasopressin V1a receptor (Homo sapiens) (UniProt P37288); test: Selectivity interaction (CEREP panel) EUB0002346a AVPR1A; set-up: recommended concentration 1 uM; details: at 10 µM
[17] = biological target: Substance-P receptor (Homo sapiens) (UniProt P25103); test: Selectivity interaction (NIMH PDSP panel) EUB0002346a TACR1; set-up: recommended concentration 1 uM; details: at 10 µM
[18] = biological target: Substance-K receptor (Homo sapiens) (UniProt P21452); test: Selectivity interaction (CEREP panel) EUB0002346a TACR2; set-up: recommended concentration 1 uM; details: at 10 µM
[19] = biological target: Vasopressin V1b receptor (Homo sapiens) (UniProt P47901); test: Selectivity interaction (NIMH PDSP panel) EUB0002346a AVPR1B; set-up: recommended concentration 1 uM; details: at 10 µM
[20] = biological target: T4, Nuclear receptor subfamily 2 group C member 1 (Homo sapiens) (UniProt P13056); test: Selectivity interaction (Reporter gene assay) EUB0000082b NR2C1; set-up: recommended concentration 3 uM
T4 sequence (whole entry): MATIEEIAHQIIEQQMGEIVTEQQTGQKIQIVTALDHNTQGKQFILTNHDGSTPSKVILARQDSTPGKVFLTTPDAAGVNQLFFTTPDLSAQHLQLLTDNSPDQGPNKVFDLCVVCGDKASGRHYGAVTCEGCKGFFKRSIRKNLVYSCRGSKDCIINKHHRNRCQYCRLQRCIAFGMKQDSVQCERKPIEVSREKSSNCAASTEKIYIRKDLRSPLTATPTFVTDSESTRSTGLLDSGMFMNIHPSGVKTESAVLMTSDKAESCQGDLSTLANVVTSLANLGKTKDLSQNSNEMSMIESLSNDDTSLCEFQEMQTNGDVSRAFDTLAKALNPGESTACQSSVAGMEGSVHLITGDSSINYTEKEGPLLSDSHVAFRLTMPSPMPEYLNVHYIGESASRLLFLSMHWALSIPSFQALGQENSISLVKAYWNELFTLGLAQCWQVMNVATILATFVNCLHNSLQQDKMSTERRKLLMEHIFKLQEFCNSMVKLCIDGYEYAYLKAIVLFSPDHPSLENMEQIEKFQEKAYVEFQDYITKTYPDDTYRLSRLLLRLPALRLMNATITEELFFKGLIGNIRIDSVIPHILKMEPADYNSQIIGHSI

[21] = biological target: T5, Hepatocyte nuclear factor 4-alpha (Homo sapiens) (UniProt P41235); test: Selectivity interaction (Reporter gene assay) EUB0000082b HNF4A; set-up: recommended concentration 3 uM
T5 sequence (whole entry): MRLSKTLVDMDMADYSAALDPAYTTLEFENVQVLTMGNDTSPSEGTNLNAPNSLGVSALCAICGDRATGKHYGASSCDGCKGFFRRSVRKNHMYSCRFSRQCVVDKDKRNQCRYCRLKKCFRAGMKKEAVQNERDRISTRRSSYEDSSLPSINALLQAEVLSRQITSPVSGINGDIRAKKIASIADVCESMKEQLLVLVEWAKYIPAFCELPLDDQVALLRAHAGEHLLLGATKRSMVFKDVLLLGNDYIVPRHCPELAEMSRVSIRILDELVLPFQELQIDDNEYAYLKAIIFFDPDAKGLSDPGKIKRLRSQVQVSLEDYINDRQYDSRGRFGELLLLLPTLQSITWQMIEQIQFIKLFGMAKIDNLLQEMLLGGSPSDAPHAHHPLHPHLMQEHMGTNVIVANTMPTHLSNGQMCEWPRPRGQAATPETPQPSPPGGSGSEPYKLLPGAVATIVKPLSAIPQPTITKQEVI

[22] = biological target: Nuclear receptor subfamily 2 group E member 1 (Homo sapiens) (UniProt Q9Y466); test: Selectivity interaction (Reporter gene assay) EUB0000082b NR2E1; set-up: recommended concentration 3 uM; details: screened at recom. conc., Selectivity number of off-targets 2.0, Selectivity number of targets 5.0, Source Knowledge inhouse
[23] = biological target: Nuclear receptor subfamily 4immunitygroup A member 1 (Homo sapiens) (UniProt P22736); test: Selectivity interaction (Reporter gene assay) EUB0000082b NR4A1; set-up: recommended concentration 3 uM
[24] = biological target: Steroidogenic factor 1 (Homo sapiens) (UniProt Q13285); test: Selectivity interaction (Reporter gene assay) EUB0000082b NR5A1; set-up: recommended concentration 3 uM
[25] = biological target: NR1I2 (nuclear receptor subfamily 1 group I member 2, PXR) (Homo sapiens, UniProt O75469); test: Selectivity interaction (Reporter gene assay) EUB0000082b NR1I2; set-up: recommended concentration 3 uM; details: read-out: Fold activation
[26] = biological target: Alpha trans-inducing protein (Human alphaherpesvirus 1) (UniProt A0A5J6DW59); test: Selectivity interaction (Reporter gene assay) EUB0000082b UL48; set-up: recommended concentration 3 uM
[27] = biological target: T6, Retinoic acid receptor RXR-alpha (Homo sapiens) (UniProt P19793); test: Selectivity interaction (Reporter gene assay) EUB0000082b RXRA; set-up: recommended concentration 3 uM; details: reference bexarotene 1 uM, Selectivity number of off-targets 0.0, Selectivity number of targets 1.0, Source Knowledge inhouse
T6 sequence (whole entry): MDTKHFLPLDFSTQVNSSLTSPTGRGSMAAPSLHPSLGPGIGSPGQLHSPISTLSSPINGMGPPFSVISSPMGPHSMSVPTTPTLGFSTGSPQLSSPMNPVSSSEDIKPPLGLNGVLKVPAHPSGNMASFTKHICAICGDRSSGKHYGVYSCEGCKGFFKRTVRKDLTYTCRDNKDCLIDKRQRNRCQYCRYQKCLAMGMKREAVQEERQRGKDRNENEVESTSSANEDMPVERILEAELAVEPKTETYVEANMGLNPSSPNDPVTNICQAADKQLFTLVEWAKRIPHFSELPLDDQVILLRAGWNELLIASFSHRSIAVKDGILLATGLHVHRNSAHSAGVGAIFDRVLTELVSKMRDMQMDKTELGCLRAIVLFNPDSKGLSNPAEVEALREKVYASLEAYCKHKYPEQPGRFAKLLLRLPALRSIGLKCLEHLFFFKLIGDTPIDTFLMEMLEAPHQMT

T2 sequence (P35372 whole entry): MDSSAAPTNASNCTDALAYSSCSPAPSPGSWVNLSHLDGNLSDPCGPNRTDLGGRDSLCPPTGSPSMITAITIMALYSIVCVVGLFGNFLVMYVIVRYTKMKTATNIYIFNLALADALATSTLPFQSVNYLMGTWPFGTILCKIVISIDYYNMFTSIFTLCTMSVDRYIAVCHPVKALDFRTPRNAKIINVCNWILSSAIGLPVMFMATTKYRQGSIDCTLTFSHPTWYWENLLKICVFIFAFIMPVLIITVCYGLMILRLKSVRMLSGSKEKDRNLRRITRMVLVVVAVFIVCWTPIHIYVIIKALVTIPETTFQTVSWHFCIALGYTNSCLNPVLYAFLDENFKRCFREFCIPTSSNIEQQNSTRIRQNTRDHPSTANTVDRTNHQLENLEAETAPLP
Chain of Substance-K receptor (Homo sapiens) (P21452 whole entry): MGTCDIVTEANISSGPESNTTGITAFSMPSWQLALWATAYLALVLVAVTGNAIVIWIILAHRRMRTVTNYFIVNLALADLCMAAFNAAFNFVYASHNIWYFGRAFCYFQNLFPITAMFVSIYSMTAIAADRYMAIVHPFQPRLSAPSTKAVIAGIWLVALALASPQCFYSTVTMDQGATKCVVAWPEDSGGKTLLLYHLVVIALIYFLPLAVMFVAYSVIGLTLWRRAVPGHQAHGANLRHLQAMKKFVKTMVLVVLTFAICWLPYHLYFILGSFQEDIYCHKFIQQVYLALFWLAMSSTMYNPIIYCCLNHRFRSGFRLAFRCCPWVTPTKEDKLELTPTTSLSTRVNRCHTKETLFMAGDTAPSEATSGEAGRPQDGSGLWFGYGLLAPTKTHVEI
T3 sequence (P41145 whole entry): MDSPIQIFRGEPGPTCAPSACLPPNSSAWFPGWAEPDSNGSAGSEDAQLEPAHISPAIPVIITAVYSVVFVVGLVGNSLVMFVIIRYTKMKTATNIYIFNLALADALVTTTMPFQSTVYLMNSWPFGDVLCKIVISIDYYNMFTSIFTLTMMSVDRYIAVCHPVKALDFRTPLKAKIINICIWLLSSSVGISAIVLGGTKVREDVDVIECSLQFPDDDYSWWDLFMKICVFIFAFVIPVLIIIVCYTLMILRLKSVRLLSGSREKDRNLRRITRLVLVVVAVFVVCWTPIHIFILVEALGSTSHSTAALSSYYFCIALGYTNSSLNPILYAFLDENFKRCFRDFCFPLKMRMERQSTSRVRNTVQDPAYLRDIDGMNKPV
Chain of Vasopressin V1a receptor (Homo sapiens) (P37288 whole entry, looked up): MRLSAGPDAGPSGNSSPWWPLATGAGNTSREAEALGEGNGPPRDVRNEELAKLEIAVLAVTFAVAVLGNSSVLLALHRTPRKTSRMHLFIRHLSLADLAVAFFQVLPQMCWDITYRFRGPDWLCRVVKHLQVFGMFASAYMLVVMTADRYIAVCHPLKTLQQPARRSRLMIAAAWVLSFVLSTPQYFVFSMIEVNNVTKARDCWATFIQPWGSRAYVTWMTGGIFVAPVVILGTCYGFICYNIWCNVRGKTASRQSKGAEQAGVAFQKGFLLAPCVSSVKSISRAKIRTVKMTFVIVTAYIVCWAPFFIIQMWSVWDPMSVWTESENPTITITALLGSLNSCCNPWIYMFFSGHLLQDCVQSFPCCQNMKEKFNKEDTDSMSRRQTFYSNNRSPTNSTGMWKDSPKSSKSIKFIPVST
Chain of Nuclear receptor subfamily 4immunitygroup A member 1 (Homo sapiens) (P22736 whole entry): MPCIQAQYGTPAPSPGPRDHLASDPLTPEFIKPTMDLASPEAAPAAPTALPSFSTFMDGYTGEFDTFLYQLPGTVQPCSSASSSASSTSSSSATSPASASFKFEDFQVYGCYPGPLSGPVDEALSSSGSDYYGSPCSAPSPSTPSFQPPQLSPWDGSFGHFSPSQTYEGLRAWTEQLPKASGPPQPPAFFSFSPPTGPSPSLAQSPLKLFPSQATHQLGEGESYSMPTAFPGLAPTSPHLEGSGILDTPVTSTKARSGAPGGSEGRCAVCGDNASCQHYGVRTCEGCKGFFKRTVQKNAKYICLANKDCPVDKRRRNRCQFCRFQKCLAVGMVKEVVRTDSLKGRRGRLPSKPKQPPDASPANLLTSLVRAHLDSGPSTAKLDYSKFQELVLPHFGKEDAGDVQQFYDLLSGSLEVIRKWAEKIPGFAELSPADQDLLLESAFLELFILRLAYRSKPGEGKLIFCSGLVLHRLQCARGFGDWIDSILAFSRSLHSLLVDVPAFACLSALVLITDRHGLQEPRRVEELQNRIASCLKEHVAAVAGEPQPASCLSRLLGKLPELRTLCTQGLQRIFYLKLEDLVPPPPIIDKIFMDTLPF
Chain of Substance-P receptor (Homo sapiens) (P25103 whole entry): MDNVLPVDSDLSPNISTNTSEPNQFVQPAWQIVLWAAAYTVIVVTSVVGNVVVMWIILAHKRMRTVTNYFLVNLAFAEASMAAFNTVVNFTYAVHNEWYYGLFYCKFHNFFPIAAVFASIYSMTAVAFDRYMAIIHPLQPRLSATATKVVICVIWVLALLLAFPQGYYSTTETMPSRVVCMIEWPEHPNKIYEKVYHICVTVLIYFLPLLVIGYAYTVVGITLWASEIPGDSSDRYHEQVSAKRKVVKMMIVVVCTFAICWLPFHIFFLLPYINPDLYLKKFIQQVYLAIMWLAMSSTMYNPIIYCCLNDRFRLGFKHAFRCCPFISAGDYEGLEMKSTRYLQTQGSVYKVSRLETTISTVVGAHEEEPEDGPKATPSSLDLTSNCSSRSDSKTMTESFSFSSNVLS
Chain of Vasopressin V2 receptor (Homo sapiens) (P30518 whole entry): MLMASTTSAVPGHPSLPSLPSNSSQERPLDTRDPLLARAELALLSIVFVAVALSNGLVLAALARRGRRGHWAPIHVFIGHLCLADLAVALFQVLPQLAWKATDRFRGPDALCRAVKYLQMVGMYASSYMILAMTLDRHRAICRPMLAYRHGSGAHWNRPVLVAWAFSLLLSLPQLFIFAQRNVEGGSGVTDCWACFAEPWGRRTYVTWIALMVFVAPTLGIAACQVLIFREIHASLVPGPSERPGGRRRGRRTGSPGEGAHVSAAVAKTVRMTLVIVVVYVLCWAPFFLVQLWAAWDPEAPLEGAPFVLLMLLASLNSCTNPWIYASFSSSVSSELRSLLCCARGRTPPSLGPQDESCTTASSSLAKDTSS
Chain of cAMP and cAMP-inhibited cGMP 3',5'-cyclic phosphodiesterase 10A (Homo sapiens) (Q9Y233 whole entry): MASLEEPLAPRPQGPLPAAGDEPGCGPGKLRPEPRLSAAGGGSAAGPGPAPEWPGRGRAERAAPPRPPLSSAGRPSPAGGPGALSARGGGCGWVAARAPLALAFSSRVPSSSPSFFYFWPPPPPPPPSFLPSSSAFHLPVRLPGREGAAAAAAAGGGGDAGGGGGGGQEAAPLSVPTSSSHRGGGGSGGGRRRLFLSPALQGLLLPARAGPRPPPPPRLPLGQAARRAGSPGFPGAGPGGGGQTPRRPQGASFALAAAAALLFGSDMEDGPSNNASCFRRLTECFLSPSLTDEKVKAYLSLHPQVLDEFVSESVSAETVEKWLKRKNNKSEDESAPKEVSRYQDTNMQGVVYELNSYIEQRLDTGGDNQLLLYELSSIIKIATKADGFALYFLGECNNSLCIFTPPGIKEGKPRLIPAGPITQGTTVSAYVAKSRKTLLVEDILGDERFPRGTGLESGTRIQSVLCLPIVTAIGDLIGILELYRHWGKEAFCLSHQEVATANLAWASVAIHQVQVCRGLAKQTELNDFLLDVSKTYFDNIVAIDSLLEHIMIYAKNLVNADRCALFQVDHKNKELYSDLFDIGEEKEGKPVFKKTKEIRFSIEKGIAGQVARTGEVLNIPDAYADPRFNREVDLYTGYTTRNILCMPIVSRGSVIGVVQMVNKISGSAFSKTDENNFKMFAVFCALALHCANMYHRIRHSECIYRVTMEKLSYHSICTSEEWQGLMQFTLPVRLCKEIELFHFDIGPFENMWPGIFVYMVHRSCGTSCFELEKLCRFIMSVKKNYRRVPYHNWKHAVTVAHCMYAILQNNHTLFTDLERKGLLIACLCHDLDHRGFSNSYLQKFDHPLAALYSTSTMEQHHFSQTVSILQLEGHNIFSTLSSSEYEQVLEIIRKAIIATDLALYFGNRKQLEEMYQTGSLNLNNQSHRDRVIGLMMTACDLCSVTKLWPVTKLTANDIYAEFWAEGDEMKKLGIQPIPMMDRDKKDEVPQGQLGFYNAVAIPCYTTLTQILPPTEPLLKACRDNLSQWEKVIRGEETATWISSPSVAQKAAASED
Chain of Delta-type opioid receptor (P41143 whole entry): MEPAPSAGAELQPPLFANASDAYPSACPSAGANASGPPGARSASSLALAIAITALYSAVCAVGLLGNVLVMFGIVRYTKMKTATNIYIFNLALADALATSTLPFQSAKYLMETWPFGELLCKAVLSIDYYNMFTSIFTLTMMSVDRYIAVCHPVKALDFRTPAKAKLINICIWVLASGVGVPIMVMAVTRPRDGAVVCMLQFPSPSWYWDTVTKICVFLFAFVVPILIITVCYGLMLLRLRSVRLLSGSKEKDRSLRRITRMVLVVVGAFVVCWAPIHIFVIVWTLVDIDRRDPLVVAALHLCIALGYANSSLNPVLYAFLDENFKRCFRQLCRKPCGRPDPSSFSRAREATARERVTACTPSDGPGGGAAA
Chain of Vasopressin V1b receptor (Homo sapiens) (P47901 whole entry): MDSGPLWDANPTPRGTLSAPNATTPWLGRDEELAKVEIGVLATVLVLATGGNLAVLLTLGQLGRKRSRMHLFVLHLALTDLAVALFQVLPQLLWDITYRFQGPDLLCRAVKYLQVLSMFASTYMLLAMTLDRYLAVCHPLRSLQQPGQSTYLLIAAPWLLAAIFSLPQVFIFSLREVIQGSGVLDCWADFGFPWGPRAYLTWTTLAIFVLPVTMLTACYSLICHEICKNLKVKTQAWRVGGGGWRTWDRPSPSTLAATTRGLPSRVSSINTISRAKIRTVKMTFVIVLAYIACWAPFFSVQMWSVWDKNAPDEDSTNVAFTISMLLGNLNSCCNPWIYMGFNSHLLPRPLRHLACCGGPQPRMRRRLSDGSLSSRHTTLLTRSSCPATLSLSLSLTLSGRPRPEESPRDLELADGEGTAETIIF

Control [1]: 0% | Control [2]: 0%
SMILES: CCCOc1cc(OCCCCN(C)C)cc(Oc2cc3c(cc2NS(=O)(=O)c2ccc(OC)c(OC)c2)n(C)c(=O)n3C)c1

inhibition [3]: 82.1% | inhibition [4]: 61.8%
SMILES: N#Cc1ccc(-c2c3n(c4cccnc24)CCN(C2CC2)C3=O)cc1F

pIC50 [5]: 5.85 | pIC50 [6]: 5.85 | pIC50 [7]: 5.85
SMILES: CN(C)CCCOc1ccc(-c2cc(NCCCn3cccn3)nc(S(C)(=O)=O)n2)cc1

SMILES: CCN(CC)CCCC[C@H](NC(=O)[C@H](CC(C)C)NC(=O)[C@H](C)NC(=O)[C@H](Cc1ccccc1)NC(=O)c1ccc(C(C)(C)C)cc1)C(=O)N[C@@H](CO)C(=O)OC ({Benzoyl(4-tBu)}-FAL[Lys(Et2)]S-OMe)
Inhibition of control (Mu-type opioid receptor [8]): > 50% | Inhibition of control [9]: > 50% | Inhibition of control [10]: > 50% | Inhibition of control [11]: > 50% | Inhibition of control (Mu-type opioid receptor [12]): 51% | Inhibition of control [13]: > 50% | Inhibition of control [14]: > 50% | Inhibition of control [15]: 91% | Inhibition of control [16]: 85% | Inhibition of control [17]: > 50% | Inhibition of control [18]: 75% | Inhibition of control [19]: > 50%

Fold activation [20]: 1.63 | Fold activation [21]: 0.867 | Fold activation [22]: 1.84 | Fold activation [23]: 1.28 | Remaining activity [24]: 0.876 | fold induction [25]: 2.24 | P-value [26]: 4.11e-06 | Relative activation [27]: 0.523%
SMILES: Fc1ccc(-c2c3cccc(C(F)(F)F)c3nn2Cc2ccc(F)cc2Cl)cc1 [LXR-623]
